Test results reported in BindingDB's records for doi:10.1021/jm9705519 (National Institute On Drug Abuse-Intramural Research Program, 1998).
pIC50: −log10 of the molar value.

Each compound was assayed against Sigma non-opioid intracellular receptor 1 (Cavia porcellus) (UniProt Q60492) (assay: Binding affinity was evaluated using [3H]pentazocine binding to sigma-1 receptor from guinea pig brain).
Sigma non-opioid intracellular receptor 1 (Cavia porcellus), sequence (Q60492 whole entry, looked up): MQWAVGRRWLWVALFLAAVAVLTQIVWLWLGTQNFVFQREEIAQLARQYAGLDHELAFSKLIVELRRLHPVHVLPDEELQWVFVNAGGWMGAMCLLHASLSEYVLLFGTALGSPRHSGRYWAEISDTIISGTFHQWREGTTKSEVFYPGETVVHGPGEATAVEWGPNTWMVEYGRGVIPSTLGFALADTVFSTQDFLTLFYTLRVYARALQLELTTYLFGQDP

Structure (SMILES)	pIC50
C[C@H]1CN(CCCn2c3ccccc3c3ccccc32)C[C@H](C)N1C	6.05
CC1CN(CCCn2c3ccccc3c3ccccc32)CC(C)N1CCN=C=S (centres undefined) [9-{3-[4-(2-Isothiocyanato-ethyl)-3,5-dimethyl-piperazin-1-yl]-propyl}-9H-carbazole]	6.02
CC1CN(CCCn2c3ccccc3c3ccccc32)CC(C)N1CCCN=C=S (centres undefined) [9-{3-[4-(3-Isothiocyanato-propyl)-3,5-dimethyl-piperazin-1-yl]-propyl}-9H-carbazole]	5.74
CC1CN(CCCn2c3ccccc3c3ccccc32)CC(C)N1CCCCCCN=C=S (centres undefined) [9-{3-[4-(6-Isothiocyanato-hexyl)-3,5-dimethyl-piperazin-1-yl]-propyl}-9H-carbazole]	6.15
